Results as given in patent US10344025B2, “GLS1 inhibitors for treating disease” (Board of Regents, The University of Texas System, priority 2014, dated 2019).

Experiments:
A549 cells = experiment: Proliferation Assay (A549 viability, Cell Titer Fluor, 72 hours); type: cell-based; details: Homo sapiens
In short: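 Cell Titer Fluor fluorescence after 72 h compound treatment (0.5% DMSO, 37 °C, 5% CO2) of A549 cells plated 24 h earlier at 1000/well. Four-parameter logistic fitting gave IC50.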

[1] = molecular target: purified recombinant human GAC (GLS1) (Homo sapiens (Human), UniProt O94925); experiment: GLS1 Enzymatic Activity Assay (dual-coupled enzymatic assay, resorufin/Amplex UltraRed readout); type: biochemical;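 also: glutamate from GAC coupled via glutamate oxidase and peroxidase to resorufin, read as fluorescence (ex 530, em 590 nm) kinetically or at 20 min, four-parameter logistic IC50 fit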
purified recombinant human GAC (GLS1), sequence (O94925 other isoform, or with tags, fused parts or gaps): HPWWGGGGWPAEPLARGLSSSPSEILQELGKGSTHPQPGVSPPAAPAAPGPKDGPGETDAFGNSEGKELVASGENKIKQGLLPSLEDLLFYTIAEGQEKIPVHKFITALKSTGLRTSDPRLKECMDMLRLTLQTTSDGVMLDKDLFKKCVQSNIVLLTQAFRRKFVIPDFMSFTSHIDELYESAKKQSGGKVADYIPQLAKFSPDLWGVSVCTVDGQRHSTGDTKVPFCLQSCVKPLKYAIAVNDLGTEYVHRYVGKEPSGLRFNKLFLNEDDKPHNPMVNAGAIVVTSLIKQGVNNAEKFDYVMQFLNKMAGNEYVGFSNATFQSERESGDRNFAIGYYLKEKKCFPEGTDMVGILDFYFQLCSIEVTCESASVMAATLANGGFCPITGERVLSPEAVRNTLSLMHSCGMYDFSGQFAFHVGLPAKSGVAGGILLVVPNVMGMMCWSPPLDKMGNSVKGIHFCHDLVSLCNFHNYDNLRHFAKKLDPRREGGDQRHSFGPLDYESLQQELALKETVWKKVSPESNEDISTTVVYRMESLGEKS

Row | Structure (SMILES) | EC50 (A549 cells; A549, 72 h) [nM] | IC50 [1] [nM] | EC50 (A549 cells) [nM]
1 | O=C(Cc1cccc(OC(F)(F)F)c1)Nc1nnc(CCCCn2cc(C(=O)NCc3ccccc3)nn2)s1 [Example 16, N-benzyl-[4-(5-{2-[3-(trifluoromethoxy)phenyl]acetamido}-1,3,4-thiadiazol-2-yl)butyl]-1H-1,2,3-triazole-4-carboxamide] | < 100 | < 100 | –
2 | O=C(NCCc1ccccc1)c1nnc(CCCCc2ccc(NC(=O)[C@@H](O)c3ccccc3)nn2)s1 [Example 25, 5-(4-{6-[(2S)-2-hydroxy-2-phenylacetamido]pyridazin-3-yl}butyl)-N-(2-phenylethyl)-1,3,4-thiadiazole-2-carboxamide] | 100 to 500 | < 100 | –
3 | O=C(NCc1cccc(OC(F)(F)F)c1)c1cn(CCCCn2cc(C(=O)NC[C@H](O)c3ccccc3)nn2)nn1 [Example 139, N-[(2R)-2-hydroxy-2-phenylethyl]-1-{4-[4-({[3-(trifluoromethoxy)phenyl]methyl}carbamoyl)-1H-1,2,3-triazol-1-yl]butyl}-1H-1,2,3-triazole-4-carboxamide] | 100 to 500 | 100 to 500 | –
4 | Cc1ccc(CNC(=O)c2cn(CC(F)CCn3cc(NC(=O)Cc4cccc(OC(F)(F)F)c4)nn3)nn2)cn1 (stereo not drawn) [Example 396, 1-[2-fluoro-4-(4-{2-[3-(trifluoromethoxy)phenyl]acetamido}-1H-1,2,3-triazol-1-yl)butyl]-N-[(6-methylpyridin-3-yl)methyl]-1H-1,2,3-triazole-4-carboxamide] | < 100 | < 100 | –
5 | O=C(NCc1cccc(OC(F)(F)F)c1)c1cn(CCC(F)Cn2cc(C(=O)NCc3ccc(C(F)(F)F)cn3)nn2)nn1 (stereo not drawn) [Example 431, 1-{2-fluoro-4-[4-({[3-(trifluoromethoxy)phenyl]methyl}carbamoyl)-1H-1,2,3-triazol-1-yl]butyl}-N-{[5-(trifluoromethyl)pyridin-2-yl]methyl}-1H-1,2,3-triazole-4-carboxamide] | < 100 | < 100 | –
6 | O=C(NCc1ccc(F)cc1)c1cn(CCC(F)Cn2cc(C(=O)NCc3cc(C(F)(F)F)ccn3)nn2)nn1 (stereo not drawn) [Example 459, 1-[2-fluoro-4-(4-{[(4-fluorophenyl)methyl]carbamoyl}-1H-1,2,3-triazol-1-yl)butyl]-N-{[4-(trifluoromethyl)pyridin-2-yl]methyl}-1H-1,2,3-triazole-4-carboxamide] | 100 to 500 | < 100 | –
7 | CNC(=O)c1nnc(CCC(F)Cn2cc(C(=O)NCc3cc(OC(F)(F)F)ccc3F)nn2)s1 (stereo not drawn) [Example 555, 5-{3-fluoro-4-[4-({[2-fluoro-5-(trifluoromethoxy)phenyl]methyl}carbamoyl)-1H-1,2,3-triazol-1-yl]butyl}-N-methyl-1,3,4-thiadiazole-2-carboxamide] | 100 to 500 | < 100 | –
8 | O=C(Cc1cccnc1)Nc1ccc(CCCCc2nnc(C(=O)NCc3ccccc3)s2)nn1 [Example 30, N-benzyl-5-(4-{6-[2-(pyridin-3-yl)acetamido]pyridazin-3-yl}butyl)-1,3,4-thiadiazole-2-carboxamide] | < 100 | < 100 | –
9 | O=C(NCc1ccccn1)c1cn(CCC(F)Cn2cc(C(=O)NCc3cc(OC(F)(F)F)ccc3F)nn2)nn1 (stereo not drawn) [Example 373, 1-{3-fluoro-4-[4-({[2-fluoro-5-(trifluoromethoxy)phenyl]methyl}carbamoyl)-1H-1,2,3-triazol-1-yl]butyl}-N-(pyridin-2-ylmethyl)-1H-1,2,3-triazole-4-carboxamide] | < 100 | < 100 | –
10 | CNC(=O)c1cn(CCCCc2ccc(NC(=O)Cc3ccccc3)nn2)nn1 [Example 161, N-methyl-1-{4-[6-(2-phenylacetamido)pyridazin-3-yl]butyl}-1H-1,2,3-triazole-4-carboxamide] | < 100 | < 100 | –
11 | CNC(=O)c1cn(CCC(F)Cn2cc(C(=O)NCc3cncc(C4CC4)c3)nn2)nn1 (stereo not drawn) [Example 164, 1-[4-(4-{[(5-cyclopropylpyridin-3-yl)methyl]carbamoyl}-1H-1,2,3-triazol-1-yl)-3-fluorobutyl]-N-methyl-1H-1,2,3-triazole-4-carboxamide] | 100 to 500 | < 100 | –
12 | Cc1ccc(CNC(=O)c2cn(CCCCc3nnc(C(=O)NCc4cccc(OC(F)(F)F)c4)s3)nn2)cn1 [Example 61] | < 100 | < 100 | –
13 | O=C(NCc1ccc(C(F)(F)F)cn1)c1cn(CCC(F)Cn2cc(C(=O)NCc3cccc(OC(F)(F)F)c3)nn2)nn1 (stereo not drawn) [Example 433, 1-{2-fluoro-4-[4-({[5-(trifluoromethyl)pyridin-2-yl]methyl}carbamoyl)-1H-1,2,3-triazol-1-yl]butyl}-N-{[3-(trifluoromethoxy)phenyl]methyl}-1H-1,2,3-triazole-4-carboxamide] | < 100 | < 100 | –
14 | O=C(Cc1cccc(OC(F)(F)F)c1)Nc1ccc(CCCCc2nnc(C(=O)NCc3ccccc3)s2)nn1 [Example 36, N-benzyl-5-[4-(6-{2-[3-(trifluoromethoxy)phenyl]acetamido}pyridazin-3-yl)butyl]-1,3,4-thiadiazole-2-carboxamide] | < 100 | < 100 | –
15 | O=C(Cc1ccccc1)Nc1ccc(CCCCc2nnc(C(=O)NCc3ccccc3)s2)nn1 [Example 28, N-benzyl-5-{4-[6-(2-phenylacetamido)pyridazin-3-yl]butyl}-1,3,4-thiadiazole-2-carboxamide] | 100 to 500 | < 100 | –
16 | CC(C)(CO)CNC(=O)c1cn(CCCCc2ccc(NC(=O)Cc3cccc(OC(F)(F)F)c3)nn2)nn1 [Example 560, N-(3-hydroxy-2,2-dimethylpropyl)-1-[4-(6-{2-[3-(trifluoromethoxy)phenyl]acetamido}pyridazin-3-yl)butyl]-1H-1,2,3-triazole-4-carboxamide] | 100 to 500 | < 100 | –
17 | Cc1ccc(CC(=O)Nc2cn(CCCCn3cc(C(=O)NCC4CC4)nn3)nn2)cn1 [Example 319, N-(cyclopropylmethyl)-1-(4-{4-[2-(6-methylpyridin-3-yl)acetamido]-1H-1,2,3-triazol-1-yl}butyl)-1H-1,2,3-triazole-4-carboxamide] | > 5000 | 500 to 5000 | –
18 | O=C(Cc1cc(OC(F)(F)F)ccc1F)Nc1ccc(CCCCn2cc(C(=O)NCC3CCO3)nn2)nn1 (stereo not drawn) [Example 582, 1-(4-(6-(2-(2-fluoro-5-(trifluoromethoxy)phenyl)acetamido)pyridazin-3-yl)butyl)-N-(oxetan-2-ylmethyl)-1H-1,2,3-triazole-4-carboxamide] | 100 to 500 | < 100 | –
19 | Cc1ccc(CNC(=O)c2cn(CCCCn3cc(NC(=O)CC4CCCC4)nn3)nn2)cn1 [Example 317, 1-{4-[4-(2-cyclopentylacetamido)-1H-1,2,3-triazol-1-yl]butyl}-N-[(6-methylpyridin-3-yl)methyl]-1H-1,2,3-triazole-4-carboxamide] | 100 to 500 | 100 to 500 | –
20 | O=C(NCc1cccc(C(F)(F)F)n1)c1cn(CCC(F)Cn2cc(C(=O)NCc3cccc(OC(F)(F)F)c3)nn2)nn1 (stereo not drawn) [Example 438, 1-{3-fluoro-4-[4-({[3-(trifluoromethoxy)phenyl]methyl}carbamoyl)-1H-1,2,3-triazol-1-yl]butyl}-N-{[6-(trifluoromethyl)pyridin-2-yl]methyl}-1H-1,2,3-triazole-4-carboxamide] | < 100 | < 100 | –
21 | O=C(NCc1ccccc1)c1cn(CCCCn2cc(C(=O)NCc3cc(C(F)(F)F)ccn3)nn2)nn1 [Example 96, 1-{4-[4-(benzylcarbamoyl)-1H-1,2,3-triazol-1-yl]butyl}-N-{[4-(trifluoromethyl)pyridin-2-yl]methyl}-1H-1,2,3-triazole-4-carboxamide] | 100 to 500 | 100 to 500 | –
22 | O=C(NCc1cccc(OC(F)(F)F)c1)c1cn(CCCCc2nnc(C(=O)NCCO)s2)nn1 [Example 45, N-(2-hydroxyethyl)-5-{4-[4-({[3-(trifluoromethoxy)phenyl]methyl}carbamoyl)-1H-1,2,3-triazol-1-yl]butyl}-1,3,4-thiadiazole-2-carboxamide] | 500 to 5000 | 100 to 500 | –
23 | CNC(=O)c1cn(CCCCc2ccc(NC(=O)CN3CCC(c4ccccc4)CC3)nn2)nn1 [Example 215, N-methyl-1-(4-(6-(2-(4-phenylpiperidin-1-yl)acetamido)pyridazin-3-yl)butyl)-1H-1,2,3-triazole-4-carboxamide] | 500 to 5000 | 100 to 500 | –
24 | O=C(CN1CCC(F)(F)C1)Nc1cn(CCCCn2cc(C(=O)NCc3cc(Cl)ccc3F)nn2)nn1 [Example 355, N-[(5-chloro-2-fluorophenyl)methyl]-1-(4-{4-[2-(3,3-difluoropyrrolidin-1-yl)acetamido]-1H-1,2,3-triazol-1-yl}butyl)-1H-1,2,3-triazole-4-carboxamide] | 100 to 500 | 100 to 500 | –
25 | CNC(=O)c1cn(CC(F)CCc2nnc(C(=O)NCc3cc(C(F)(F)F)ccn3)s2)nn1 (racemic) [Example 508, 5-(3-fluoro-4-(4-(methylcarbamoyl)-1H-1,2,3-triazol-1-yl)butyl)-N-((4-(trifluoromethyl)pyridin-2-yl)methyl)-1,3,4-thiadiazole-2-carboxamide] | – | 100 to 500 | 100 to 500
26 | CNC(=O)c1cn(CCC(F)Cn2cc(C(=O)NCc3cccc(C(=O)OC)c3)nn2)nn1 (stereo not drawn) [Example 185, methyl 3-{[(1-{2-fluoro-4-[4-(methylcarbamoyl)-1H-1,2,3-triazol-1-yl]butyl}-1H-1,2,3-triazol-4-yl)formamido]methyl} benzoate] | 500 to 5000 | 100 to 500 | –
27 | O=C(Cc1cccc(OC(F)(F)F)c1)Nc1cn(CC(F)CCn2cc(C(=O)NCc3cccc(OC(F)(F)F)c3)nn2)nn1 (stereo not drawn) [Example 339, 1-[3-fluoro-4-(4-{2-[3-(trifluoromethoxy)phenyl]acetamido}-1H-1,2,3-triazol-1-yl)butyl]-N-{[3-(trifluoromethoxy)phenyl]methyl}-1H-1,2,3-triazole-4-carboxamide] | < 100 | < 100 | –
